In ChEMBL document CHEMBL5096169, “Recent progress in agents targeting polo-like kinases: Promising therapeutic strategies” (Eur J Med Chem, 2021):
pIC50, pKd: −log10 of the molar value. Where “and” joins values, the source holds several entries; their conditions need not be identical. Equal entries are not always repeated. Each block holds one compound with its values, some of them ahead of it.

How the values were obtained:
ADR5000 cell line = assay: Cytotoxicity against human CEM/ADR5000 cells assessed as reduction in cell viability incubated for 72 hrs by resazurin microplate assay; format: functional, cell-based; settings: ADR5000, 72 h
[1] = molecular target: Serine/threonine-protein kinase PLK3 (Homo sapiens, UniProt Q9H4B4); assay: Inhibition of recombinant N-terminal MBP-tagged human PLK3-PBD expressed in Escherichia coli BL21(DE3) rosetta cells using 5-carboxyfluorescein-GPLATSpTPKNG-NH2 as substrate preincubated for 1 hr followed by substrate addition and measured after 1 hr by fluorescence polarization assay
Serine/threonine-protein kinase PLK3, sequence (Q9H4B4 whole entry): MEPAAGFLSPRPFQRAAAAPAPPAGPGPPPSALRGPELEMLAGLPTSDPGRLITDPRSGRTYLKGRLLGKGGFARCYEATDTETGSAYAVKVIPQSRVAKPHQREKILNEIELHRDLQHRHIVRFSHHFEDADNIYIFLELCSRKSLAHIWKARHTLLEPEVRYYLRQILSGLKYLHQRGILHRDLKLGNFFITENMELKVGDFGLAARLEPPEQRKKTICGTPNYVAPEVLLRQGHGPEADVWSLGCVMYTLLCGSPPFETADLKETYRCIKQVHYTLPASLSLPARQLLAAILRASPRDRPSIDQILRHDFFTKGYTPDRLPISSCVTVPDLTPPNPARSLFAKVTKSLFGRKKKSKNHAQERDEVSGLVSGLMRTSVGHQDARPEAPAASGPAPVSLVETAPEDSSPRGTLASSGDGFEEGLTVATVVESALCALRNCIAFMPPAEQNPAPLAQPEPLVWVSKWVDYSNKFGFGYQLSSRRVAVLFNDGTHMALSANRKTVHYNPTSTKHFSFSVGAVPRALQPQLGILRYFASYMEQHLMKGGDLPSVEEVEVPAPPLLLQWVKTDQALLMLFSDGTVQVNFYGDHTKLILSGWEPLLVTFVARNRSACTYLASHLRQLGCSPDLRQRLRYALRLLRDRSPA

CCRF-CEM = assay: Cytotoxicity against human CCRF-CEM cells assessed as reduction in cell viability incubated for 72 hrs by resazurin microplate assay; format: functional, cell-based
[2] = molecular target: Serine/threonine-protein kinase PLK2 (Homo sapiens, UniProt Q9NYY3); assay: Inhibition of recombinant C-terminal 6His-tagged human PLK2-PBD expressed in Escherichia coli BL21(DE3) rosetta cells using 5-carboxyfluorescein-GPMQTSpTPKNG-OH as substrate preincubated for 1 hr followed by substrate addition and measured after 1 hr by fluorescence polarization assay
Serine/threonine-protein kinase PLK2, sequence (Q9NYY3 whole entry): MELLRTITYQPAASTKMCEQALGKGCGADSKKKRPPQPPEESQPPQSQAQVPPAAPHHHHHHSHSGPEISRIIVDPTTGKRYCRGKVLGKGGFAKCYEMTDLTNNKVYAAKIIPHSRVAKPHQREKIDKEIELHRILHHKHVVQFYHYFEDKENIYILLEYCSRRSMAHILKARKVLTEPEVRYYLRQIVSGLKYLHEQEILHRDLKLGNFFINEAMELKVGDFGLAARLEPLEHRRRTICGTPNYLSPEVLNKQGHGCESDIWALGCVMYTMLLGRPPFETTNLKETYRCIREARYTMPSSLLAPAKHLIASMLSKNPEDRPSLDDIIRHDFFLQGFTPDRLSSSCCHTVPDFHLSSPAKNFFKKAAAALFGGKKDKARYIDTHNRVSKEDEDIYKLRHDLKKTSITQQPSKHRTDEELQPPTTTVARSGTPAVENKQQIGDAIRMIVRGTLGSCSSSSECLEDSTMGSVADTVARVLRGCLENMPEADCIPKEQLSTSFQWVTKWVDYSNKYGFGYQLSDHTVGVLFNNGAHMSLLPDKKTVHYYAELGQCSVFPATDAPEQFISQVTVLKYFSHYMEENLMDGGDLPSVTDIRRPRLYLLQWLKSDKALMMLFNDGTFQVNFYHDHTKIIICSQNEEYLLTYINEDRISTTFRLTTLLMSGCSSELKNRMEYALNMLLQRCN

[3] = molecular target: T1, Serine/threonine-protein kinase PLK1 (Homo sapiens, UniProt P53350); assay: Inhibition of human PLK1-PBD expressed in Escherichia coli BL21(DE3) rosetta cells using 5-carboxyfluorescein-GPMQSpTPLNG-OH as substrate preincubated for 1 hr followed by substrate addition and measured after 1 hr by fluorescence polarization assay
T1 sequence (P53350 whole entry): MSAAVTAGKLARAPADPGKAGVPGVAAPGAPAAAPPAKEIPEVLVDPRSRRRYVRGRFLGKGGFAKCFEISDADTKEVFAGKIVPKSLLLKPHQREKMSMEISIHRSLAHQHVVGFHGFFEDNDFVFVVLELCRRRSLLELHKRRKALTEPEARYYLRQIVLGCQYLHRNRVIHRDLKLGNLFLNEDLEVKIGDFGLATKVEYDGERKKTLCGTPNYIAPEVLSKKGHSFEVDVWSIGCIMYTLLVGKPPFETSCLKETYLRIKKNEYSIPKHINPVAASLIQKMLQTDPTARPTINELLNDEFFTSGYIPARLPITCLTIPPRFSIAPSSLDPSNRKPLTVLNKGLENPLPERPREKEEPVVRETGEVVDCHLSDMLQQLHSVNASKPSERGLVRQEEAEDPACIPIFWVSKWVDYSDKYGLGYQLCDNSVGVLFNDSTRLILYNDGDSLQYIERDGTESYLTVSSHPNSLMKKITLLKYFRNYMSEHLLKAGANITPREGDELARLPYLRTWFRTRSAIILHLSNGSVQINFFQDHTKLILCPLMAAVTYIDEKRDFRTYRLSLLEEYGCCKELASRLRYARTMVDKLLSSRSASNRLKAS

[4] = molecular target: T1, Serine/threonine-protein kinase PLK1; assay: Inhibition of PLK1 (unknown origin)
[5] = molecular target: T1, Serine/threonine-protein kinase PLK1; assay: Inhibition of PLK1-PBD (unknown origin) using FITC-GPMQSpTPLNG-OH as substrate measured after 30 mins by Fluorescence polarization assay
[6] = molecular target: T1, Serine/threonine-protein kinase PLK1; assay: Binding affinity to human PLK1-PBD (326 to 603 residues) expressed in Escherichia coli BL21(DE3) rosetta cells by microscale thermophoresis analysis
[7] = molecular target: T1, Serine/threonine-protein kinase PLK1; assay: Inhibition of human PLK1-PBD (326 to 603 residues) expressed in Escherichia coli BL21(DE3) rosetta cells using 5-carboxyfluorescein-GPMQSpTPLNG-OH as substrate preincubated for 1 hr followed by substrate addition and measured after 1 to 2 hr by fluorescence polarization assay
MOLM-13 = assay: Antiproliferative activity against human MOLM-13 cells assessed as inhibition of cell proliferation incubated for 24 hrs by CCK-8 assay; format: functional, cell-based; settings: MOLM-13, 24 h
KG-1 = assay: Antiproliferative activity against human KG-1 cells assessed as inhibition of cell proliferation incubated for 24 hrs by CCK-8 assay; format: functional, cell-based; settings: KG-1, 24 h

pIC50 [1]: < 4.00
pIC50 [2]: 4.02
pIC50 [3]: 4.75 and 4.02
SMILES: C[C@@]12CN(Cc3cccc(C#N)c3)C[C@@](C)(C1)c1c(-c3ccc4ccccc4c3)ccc(=O)n1C2
pIC50 (ADR5000 cell line): 4.87
pIC50 (CCRF-CEM): 4.94

pIC50 [4]: 8.66
SMILES: COc1cc2ncn(-c3cc(-c4cccc(C(F)(F)F)c4)c(C(N)=O)s3)c2cc1OC

pIC50 [5]: 6.57
SMILES: CC(CC(=O)N[C@H](C(=O)N[C@@H](CO)C(=O)N[C@H](C(N)=O)[C@@H](C)OP(=O)(O)O)c1cncs1)NC(=O)c1ccc(CO)cc1 (single isomer, unassigned)

pKd [6]: 4.89
pIC50 [7]: 4.79
SMILES: CCOC(=O)c1oc2ccccc2c1CBr

pIC50 (MOLM-13): 8.21
SMILES: CC[C@@H]1C(=O)N(C)c2cnc(Nc3ccc(C(=O)NCCOCCOCCOCCNc4cccc5c4C(=O)N(C4CCC(=O)NC4=O)C5=O)cc3OC)nc2N1C1CCCC1 (stereo partly specified)
pIC50 (KG-1): 8.16
